Measured values published in US5180742A, “Quinone derivatives, their production and use” (Takeda Chemical Industries, Ltd., priority 1984, dated 1993).

Columns and labels:
[1] = test system: PMA-stimulated release of O2^- in guinea pig peritoneal polymorphonuclear leukocytes; experiment: PMA-stimulated release of O2- in guinea pig peritoneal polymorphonuclear leukocytes (chemiluminescence); format: cell-based
Method: Luminol (3-aminophthaloylhydrazine), 10 nmole, and phorbol myristate acetate (PMA), 10 ng, were added to guinea pig peritoneal polymorphonuclear leukocytes (1.5×10^4 cells) suspended in Hanks' balanced salt solution-HEPES buffer (pH 7.4). A total volume of the reaction mixture was 0.1 ml. The chemiluminescence resulted from release of superoxide (O2^-) during 30 sec was measured continuously for 10 min at 37° C. using a chemiluminometer analyzer (Packard Pico-Lite). A peak value of the chemiluminescence was compared as an index of the release of O2^-, and the chemiluminecence inhibitable by superoxide dismutase (300 μg/ml) was measured as 100%. Compound No. 50 was added immediately before the addition of PMA.

[2] = test system: experimental cerebral infarction model of Mongolian gerbils; experiment: Anti-edema action in an experimental cerebral infarction model of Mongolian gerbil; format: in vivo; settings: oral, 1 hour before carotid ligation
Method: Anti-Edema Action in an Experimental Cerebral Infarction Model of Mongolian Gerbil
Male Monglian gerbils (8-10 weeks of age) were used. Under light ether anesthesia, the right common carotid artery was ligated for 1 hour to induce experimental cerebral infarction, and then reperfused on removing the ligature. One hour after reperfusion, the animal was guillotined, the brain was excised, and divided into the left and right brain hemispheres. The wet weight of each hemisphere was determined, and then the dry weight was determined after drying for 24 hours at 96° C. The water content (%) of each hemisphere was estimated according to the following equation. [formula] In addition, neurological deficit symptoms were observed during ligation-and-reperfusion periods.
Test drugs were orally administered as a gum arabic suspension 1 hour before the common carotid artery ligation under an unanesthetized condition. Results

[3] = test system: Fe^3+ -NTA-induced injury of rat kidney; experiment: Inhibitory effect on Fe3+-NTA-induced injury of rat kidney; format: in vivo, Wistar rats; settings: 20 mg/kg oral once a day; for body weight gain: control 9.8 ± 5.4, normal 68.3 ± 2.3; for Urinary volume: control 20, normal 6.8; for Urinary protein: control 25.1, normal 5.1
Method: Ferric Nitrilotriacetate (Fe^3+ -NTA)-Induced Injury of Rat Kidney
Male Wistar rats of 4 weeks old weighing about 80 g were used. Injury of kidney was induced by the method of Awai et al. [Amer. J. Pathol., 95, 663-674 (1979)]. The mixture of ferric nitrate and NTA as a ratio of 1:4 was intraperitoneally given: iron of 5 mg/kg for 3 days followed 10 mg/kg for 9 days. Twelve days later, the animals were killed. Body weight gain, urinary volume, urinary protein and wet and dry weights of kidney were measured. Drugs were suspended in a 5% gum arabic solution and given orally once a day in a dose of 20 mg/kg.

[4] = test system: LTD4-induced bronchoconstriction; experiment: Effect on LTD4-induced bronchoconstriction in guinea pigs; format: in vivo
Method: Effect on LTD4 -Induced Brochoconstriction in Guinea Pigs
Bronchoconstriction in guinea pigs was measured by the method of Konzett-Rossler[Naunyn-Schmiedeberg's Arch. exp. Path. Pharmak., 195, 71-74(1940)]. The animals were anesthetized with urethane (1.5 g/kg, intraperitoneally) and the trachea was cannulated. The animals were artificially ventilated by means of a respirator (Harvard apparatus rodent respirator) at a rate of 70 strokes/min and a constant volume of 5-7 ml. Inflation pressure was kept constantly at 10 cm H2 O. Changes in overflow of air from a side-arm of the cannula were recorded on Rectigraph-8S via a bronchospasm transducer for 15 min. LTD4 (10 μg/kg) was given into the […] through an indwelling cannula. Each specimen suspended in a 5% gum arabic solution was also given through the same cannula 1 or 24 hrs before the LTD4 administraction.

[5] = test system: Immunoglobulin-G1 mediated bronchoconstriction reaction; experiment: Action on immunoglobulin-G1 mediated bronchoconstriction reaction in guinea pigs; format: in vivo, Hartley guinea pigs; settings: Cavia porcellus; 20 mg/kg oral, 1 hour before antigen
Method: Action on the Immunoglobulin-G1 Mediated Bronchoconstriction Reaction in Guinea Pigs
In accordance with the method of Orange and Moore (Orange, R. P. and Moore E. G. , J. Immunol., 116, 392-397, 1976), female and male Hartley guinea pigs weighing about 350 g were sensitized by intraperitoneal application of an emulsion (1 ml) composed of egg albumin (1 mg) and Freund's complete adjuvant (produced by Wako Pure-Chemical Industries, Ltd. of Japan). 3 Weeks after the sensitization, a serum antibody level in the sensitized guinea pigs was measured by means of the 3-hours passive cutaneous anaphylaxis (PCA) reaction in guinea pigs. […] The broncoconstriction reaction resulting from the antigen-antibody reaction was measured in accordance with the Konzett-Rossler method (Konzett, H. and Rossler, R., Naunyn-Schmiedeberg'ss Arch. exp. Path. pharmak., 195, 71-74, 1940). The guinea pigs were fixed on the dorsal position under anesthesia with a urethane (1.5 g/kg given intraperitonealy). An incision was made through the trachea, which was connected to an artificial respirator (manufactured by Harvard Co.) through an endotracheal tube, with a side tube of the endotracheal tube being attached to a brochoconstricting transducer (type 7020, manufactured by Ugobasile Co.). While an air volume per ventilation was adjusted to 5 to 7 ml and an air ventilation rate was controlled at 70 times/min., with a load pressure to the lung set at 10 cm H2 O, the overflown air volume was recorded on Rectigraphy-8S (manufactured by Sanei Sokki Inc. of Japan) through a transducer. After 1 mg/kg of gallamine triethiodide was given intravenously to the animals, 1 mg/kg of antigen, egg albumin dissolved in physiological saline, was applied intravenously to induce a brochoconstriction reaction. The bronchconstriction reaction was recorded for the period of time of 15 minutes. A drug was suspended in 5% gum arabic solution, and given orally 1 hour before the application of the antigen. Percent inhibition of the immunoglobuin G1 mediated bronchoconstriction reaction in guinea pigs are shown below in Table 3.

CC1=C(C)C(=O)C(C(CCCCCC(=O)O)c2ccccc2)=C(C)C1=O (centres unmarked) [Compound No. 50, 7-(3,5,6-trimethyl-1,4-benzoquinon-2-yl)-7-phenylheptanoic acid]
suppression of the release of O2- (in words) ([1]; 0.001-0.1 mM): suppressed the release of O2^- in a concentration-dependent manner
inhibition at 1 µM ([1]; Cavia porcellus, Leukocyte, 0.001 mM): 12%
inhibition at 10 µM ([1]; Cavia porcellus, Leukocyte, 0.01 mM): 56%
inhibition at 100 µM ([1]; Cavia porcellus, Leukocyte, 0.1 mM): 93%
Incidence of appearance of neurological deficit symptoms ([2]; control 5/6): 1/6
Water content, normal side (left) ([2]; control 80.1 ± 0.3): 79.8 ± 1.0%
Water content, infarct side (right) ([2]; control 81.3 ± 0.9): 80.3 ± 1.0%
Urinary protein (% inhibition) [3]: 88%
Urinary volume (% Inhibition) [3]: 88%
Water content in kidney (% Inhibition) [3]: 81%
body weight gain [3]: 39.3 ± 7.4 g
Urinary volume [3]: 8.4 mL/day
Urinary protein [3]: 7.5 mg/day
% Inhibition of LTD4-induced bronchoconstriction ([4]; 0.313 mg/kg, 1 hr. before LTD4): 58%
% Inhibition of LTD4-induced bronchoconstriction ([4]; 1.25 mg/kg, 1 hr. before LTD4): 77%
% Inhibition of LTD4-induced bronchoconstriction ([4]; 5 mg/kg, 1 hr. before LTD4): 94%
% Inhibition of LTD4-induced bronchoconstriction ([4]; 5 mg/kg, 24 hrs. before LTD4): 72%
inhibition in vivo at 20 mg/kg [5]: 76%

CC1=C(C)C(=O)C(C(CCCCCC(=O)O)c2ccc(C)cc2)=C(C)C1=O (centres unmarked) [Compound No. 93]
Urinary protein (% inhibition) [3]: 10%
Urinary volume (% Inhibition) [3]: 47%
Water content in kidney (% Inhibition) [3]: 7%
body weight gain [3]: 26.2 ± 4.9 g
Urinary volume [3]: 13.6 mL/day
Urinary protein [3]: 23.1 mg/day
% Inhibition of LTD4-induced bronchoconstriction ([4]; 0.313 mg/kg, 1 hr. before LTD4): 73%
% Inhibition of LTD4-induced bronchoconstriction ([4]; 1.25 mg/kg, 1 hr. before LTD4): 83%
% Inhibition of LTD4-induced bronchoconstriction ([4]; 5 mg/kg, 1 hr. before LTD4): 85%
% Inhibition of LTD4-induced bronchoconstriction ([4]; 5 mg/kg, 24 hrs. before LTD4): 53%
inhibition in vivo at 20 mg/kg [5]: 83%
